Test results: ChEMBL document CHEMBL4680379, “Structure-based Discovery of Cell-Potent Peptidomimetic Inhibitors for Protein N-Terminal Methyltransferase 1” (ACS Med Chem Lett, 2021)
Active and inactive are the calls of the source. No cut-off for these calls is given here.

Legend:
[1] = biological target: Trypsin (Homo sapiens, UniProt P07477+P07478+P35030); experiment: Stability of compound assessed as trypsin (unknown origin) mediated compound hydrolysis at 10 uM incubated for 1 hr by MALDI-MS analysis; format: ADME, protein assay
[2] = organism: Homo sapiens; experiment: Selectivity for recombinant human N-terminal His6-tagged NTMT1 (1 to 222 residues) expressed in Escherichia coli BL21-CodonPlus(DE3)-RIL over SAHH (unknown origin)
[3] = tested on: Trypanosoma brucei; experiment: Inhibition of Trypanosoma brucei N-terminal His6-tagged PRMT7 expressed in Escherichia coli BL21-CodonPlus(DE3)-RIL at 100 uM using H4-21 peptide as substrate preincubated for 10 mins in presence of SAM followed by substrate addition by SAHH-coupled fluorescence assay relative to control
[4] = biological target: T1, N-terminal Xaa-Pro-Lys N-methyltransferase 1 (Homo sapiens) (UniProt Q9BV86); experiment: Inhibition of NTMT1 in human HCT116 cells assessed as decrease in me3-SPK level at 1 mM incubated for 3 days by Western blot analysis relative to control; format: cell-based; details: HCT-116, time 3.0 day
T1 sequence (whole entry): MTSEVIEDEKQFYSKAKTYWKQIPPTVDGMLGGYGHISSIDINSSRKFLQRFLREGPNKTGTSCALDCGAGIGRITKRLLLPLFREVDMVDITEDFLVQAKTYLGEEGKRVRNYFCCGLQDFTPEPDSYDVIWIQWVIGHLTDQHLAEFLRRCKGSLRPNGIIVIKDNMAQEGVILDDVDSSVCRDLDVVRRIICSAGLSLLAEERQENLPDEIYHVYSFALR

[5] = biological target: T2, N-terminal Xaa-Pro-Lys N-methyltransferase 1 (Homo sapiens, UniProt Q9BV86); experiment: Inhibition of NTMT1 in human HCT116 cells assessed as decrease in me3-SPK level incubated for 3 days by Western blot analysis; format: cell-based, HCT-116
T2 sequence (Q9BV86 whole entry): T1 sequence (whole entry)

[6] = biological target: Adenosylhomocysteinase (Homo sapiens) (UniProt P23526); experiment: Inhibition of SAHH (unknown origin) at 100 uM relative to control
Chain of Adenosylhomocysteinase (Homo sapiens) (P23526 2-432 limits assumed): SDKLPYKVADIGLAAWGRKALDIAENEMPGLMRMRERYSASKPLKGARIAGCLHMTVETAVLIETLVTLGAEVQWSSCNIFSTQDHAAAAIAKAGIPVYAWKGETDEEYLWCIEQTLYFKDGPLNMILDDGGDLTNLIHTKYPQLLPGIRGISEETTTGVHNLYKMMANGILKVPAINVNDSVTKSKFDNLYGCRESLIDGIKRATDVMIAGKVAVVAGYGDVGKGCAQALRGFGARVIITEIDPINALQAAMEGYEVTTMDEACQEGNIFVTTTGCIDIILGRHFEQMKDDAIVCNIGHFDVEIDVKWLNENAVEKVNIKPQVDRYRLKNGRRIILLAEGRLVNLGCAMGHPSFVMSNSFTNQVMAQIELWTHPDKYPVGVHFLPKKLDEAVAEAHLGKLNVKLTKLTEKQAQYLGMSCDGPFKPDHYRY

[7] = Selectivity for recombinant human N-terminal His6-tagged NTMT1 (1 to 222 residues) expressed in Escherichia coli BL21-CodonPlus(DE3)-RIL over Trypanosoma brucei N-terminal His6-tagged PRMT7 expressed in Escherichia coli BL21-CodonPlus(DE3)-RIL
[8] = biological target: Protein arginine N-methyltransferase 3 (Homo sapiens) (UniProt O60678); experiment: Inhibition of PRMT3 (unknown origin) at 100 uM relative to control
Chain of Protein arginine N-methyltransferase 3 (Homo sapiens) (O60678 2-531 limits assumed): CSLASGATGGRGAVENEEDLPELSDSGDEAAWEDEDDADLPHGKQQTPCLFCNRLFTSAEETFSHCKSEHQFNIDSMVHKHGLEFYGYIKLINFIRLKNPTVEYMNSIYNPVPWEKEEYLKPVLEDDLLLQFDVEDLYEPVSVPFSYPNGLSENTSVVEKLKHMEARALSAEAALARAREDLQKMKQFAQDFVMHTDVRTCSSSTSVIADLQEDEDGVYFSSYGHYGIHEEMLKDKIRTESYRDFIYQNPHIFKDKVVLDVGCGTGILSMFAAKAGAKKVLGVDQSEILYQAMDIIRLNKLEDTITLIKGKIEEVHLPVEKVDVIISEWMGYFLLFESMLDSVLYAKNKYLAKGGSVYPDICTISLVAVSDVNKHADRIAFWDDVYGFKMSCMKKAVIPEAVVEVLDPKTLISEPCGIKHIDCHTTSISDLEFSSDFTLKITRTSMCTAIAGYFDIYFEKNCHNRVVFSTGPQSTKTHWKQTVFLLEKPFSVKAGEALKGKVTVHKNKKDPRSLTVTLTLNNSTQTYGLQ

[9] = biological target: T1, N-terminal Xaa-Pro-Lys N-methyltransferase 1 (Homo sapiens); experiment: Inhibition of NTMT1 in human HCT116 cells assessed as decrease in me3-SPK level at 300 uM incubated for 3 days by Western blot analysis relative to control; format: cell-based; details: HCT-116, time 3.0 day
[10] = biological target: T3, Histone-lysine N-methyltransferase EHMT2 (Homo sapiens) (UniProt Q96KQ7); experiment: Inhibition of human His-tagged G9a (913 to 1193 residues) expressed in Escherichia coli BL21-CodonPlus(DE3)-RIL at 100 uM using H3-21 peptide as substrate preincubated for 10 mins in presence of SAM followed by substrate addition by SAHH-coupled fluorescence assay relative to control
T3 sequence (whole entry): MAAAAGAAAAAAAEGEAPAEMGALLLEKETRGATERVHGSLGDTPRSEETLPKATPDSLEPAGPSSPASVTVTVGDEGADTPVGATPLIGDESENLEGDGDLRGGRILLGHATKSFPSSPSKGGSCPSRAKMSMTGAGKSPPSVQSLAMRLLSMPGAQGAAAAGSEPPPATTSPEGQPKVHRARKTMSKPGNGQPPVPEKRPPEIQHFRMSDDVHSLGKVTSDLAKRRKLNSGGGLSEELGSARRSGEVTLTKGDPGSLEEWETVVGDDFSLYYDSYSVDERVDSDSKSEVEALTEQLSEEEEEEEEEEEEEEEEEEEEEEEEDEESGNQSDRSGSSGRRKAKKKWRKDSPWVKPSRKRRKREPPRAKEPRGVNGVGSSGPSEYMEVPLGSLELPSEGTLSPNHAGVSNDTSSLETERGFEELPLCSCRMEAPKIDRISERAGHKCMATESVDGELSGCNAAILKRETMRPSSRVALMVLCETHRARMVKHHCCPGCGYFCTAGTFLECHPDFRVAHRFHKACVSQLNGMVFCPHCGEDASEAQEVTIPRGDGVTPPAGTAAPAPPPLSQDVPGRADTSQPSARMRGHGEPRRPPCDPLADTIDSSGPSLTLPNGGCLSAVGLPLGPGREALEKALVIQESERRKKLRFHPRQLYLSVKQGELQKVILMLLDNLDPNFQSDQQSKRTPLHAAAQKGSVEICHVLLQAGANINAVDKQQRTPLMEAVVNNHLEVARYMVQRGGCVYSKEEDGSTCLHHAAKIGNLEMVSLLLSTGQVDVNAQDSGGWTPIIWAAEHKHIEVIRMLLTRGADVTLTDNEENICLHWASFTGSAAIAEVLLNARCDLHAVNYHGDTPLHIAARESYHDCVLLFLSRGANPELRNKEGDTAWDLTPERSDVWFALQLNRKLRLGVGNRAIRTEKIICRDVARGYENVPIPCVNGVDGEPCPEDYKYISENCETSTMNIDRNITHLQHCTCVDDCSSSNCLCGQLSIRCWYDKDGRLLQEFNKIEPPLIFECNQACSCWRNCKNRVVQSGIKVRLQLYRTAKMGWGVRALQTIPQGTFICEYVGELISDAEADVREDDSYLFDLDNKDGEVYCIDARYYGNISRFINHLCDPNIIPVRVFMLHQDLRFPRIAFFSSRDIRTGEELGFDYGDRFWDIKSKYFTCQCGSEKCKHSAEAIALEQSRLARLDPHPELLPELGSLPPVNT

[11] = biological target: T2, N-terminal Xaa-Pro-Lys N-methyltransferase 1; experiment: Inhibition of recombinant human N-terminal His6-tagged NTMT1 (1 to 222 residues) expressed in Escherichia coli BL21-CodonPlus(DE3)-RIL using GPKRIA peptide and SAM as substrate pre-incubated for 10 mins in presence of SAM followed by substrate addition by SAHH coupled fluorescence assay
[12] = biological target: T4, Histone-lysine N-methyltransferase SETD7 (Homo sapiens) (UniProt Q8WTS6); experiment: Inhibition of His-tagged SETD7 (unknown origin) at 100 uM using H3-21 peptide as substrate preincubated for 10 mins in presence of SAM followed by substrate addition by SAHH-coupled fluorescence assay relative to control
T4 sequence (whole entry): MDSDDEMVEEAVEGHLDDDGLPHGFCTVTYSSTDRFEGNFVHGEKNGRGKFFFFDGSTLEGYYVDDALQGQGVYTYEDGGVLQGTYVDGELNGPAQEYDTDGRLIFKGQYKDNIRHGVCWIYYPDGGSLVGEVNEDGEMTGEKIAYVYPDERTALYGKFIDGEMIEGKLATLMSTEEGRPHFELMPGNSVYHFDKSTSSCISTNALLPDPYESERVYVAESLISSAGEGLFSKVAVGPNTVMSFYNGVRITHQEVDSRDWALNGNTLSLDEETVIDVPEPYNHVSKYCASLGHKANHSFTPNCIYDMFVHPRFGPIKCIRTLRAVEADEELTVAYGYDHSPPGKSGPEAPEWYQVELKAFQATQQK

[13] = biological target: T1, N-terminal Xaa-Pro-Lys N-methyltransferase 1 (Homo sapiens); experiment: Non-competitive inhibition of recombinant human N-terminal His6-tagged NTMT1 (1 to 222 residues) expressed in Escherichia coli BL21-CodonPlus(DE3)-RIL using GPKRIA peptide and varying concentration of SAM as substrate pre-incubated for 10 mins in presence of SAM followed by fixed concentration of substrate addition and measured for 15 mins by SAHH coupled fluorescence assay; details: time 25.0 min
[14] = organism: Homo sapiens; experiment: Selectivity for recombinant human N-terminal His6-tagged NTMT1 (1 to 222 residues) expressed in Escherichia coli BL21-CodonPlus(DE3)-RIL over PRMT3 (unknown origin)
[15] = biological target: T1, N-terminal Xaa-Pro-Lys N-methyltransferase 1 (Homo sapiens); experiment: Inhibition of NTMT1 in human HCT116 cells assessed as decrease in me3-SPK level at 100 uM incubated for 3 days by Western blot analysis relative to control; format: cell-based; details: HCT-116, time 3.0 day
[16] = biological target: Protein arginine N-methyltransferase 1 (Homo sapiens) (UniProt Q99873); experiment: Inhibition of PRMT1 (unknown origin) at 100 uM using H4-21 peptide as substrate preincubated for 10 mins in presence of SAM followed by substrate addition by SAHH-coupled fluorescence assay relative to control
Chain of Protein arginine N-methyltransferase 1 (Homo sapiens) (Q99873 whole entry, looked up, the tested form may be a part): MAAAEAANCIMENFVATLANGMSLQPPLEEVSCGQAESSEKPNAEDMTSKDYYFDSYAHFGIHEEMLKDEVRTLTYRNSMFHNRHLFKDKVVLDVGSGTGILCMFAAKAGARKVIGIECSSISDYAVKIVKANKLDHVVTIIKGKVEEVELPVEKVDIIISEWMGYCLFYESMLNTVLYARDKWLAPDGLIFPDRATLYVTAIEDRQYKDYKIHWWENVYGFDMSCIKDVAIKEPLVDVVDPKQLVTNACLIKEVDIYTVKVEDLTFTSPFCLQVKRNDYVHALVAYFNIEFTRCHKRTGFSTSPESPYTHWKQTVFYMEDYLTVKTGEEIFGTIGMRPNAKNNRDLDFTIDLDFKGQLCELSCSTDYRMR

[17] = organism: Homo sapiens; experiment: Selectivity for recombinant human N-terminal His6-tagged NTMT1 (1 to 222 residues) expressed in Escherichia coli BL21-CodonPlus(DE3)-RIL over PRMT1 (unknown origin)
[18] = organism: Homo sapiens; experiment: Selectivity for recombinant human N-terminal His6-tagged NTMT1 (1 to 222 residues) expressed in Escherichia coli BL21-CodonPlus(DE3)-RIL over human His-tagged G9a (913 to 1193 residues) expressed in Escherichia coli BL21-CodonPlus(DE3)-RIL
[19] = organism: Homo sapiens; experiment: Selectivity for recombinant human N-terminal His6-tagged NTMT1 (1 to 222 residues) expressed in Escherichia coli BL21-CodonPlus(DE3)-RIL over His-tagged SETD7 (unknown origin)

Structure (SMILES)	Stabilty [1]	inhibition [4]	inhibition [9]	IC50 [11]	inhibition [15]	also measured
NCCCC[C@H](NC(=O)[C@@H]1CCCN1C(=O)Cc1cccc2ccccc12)C(=O)Nc1cccc(C(N)=O)c1	–	90%	57%	0.13 µM	10%	–
N=C(N)NCCC[C@H](NC(=O)[C@H](CCCCN)NC(=O)[C@@H]1CCCN1C(=O)Cc1cccc2ncccc12)C(N)=O	–	–	–	> 100 µM	–	–
NCCCC[C@H](NC(=O)[C@@H]1CCCN1C(=O)Cc1cccc2ccccc12)C(=O)N[C@@H](CCC(=O)O)C(N)=O	–	–	–	4.2 µM	–	–

The next lines start with results.

Stabilty [1]	inhibition [4]	inhibition [9]	IC50 [11]	inhibition [15]	Structure (SMILES)	also measured
Unstable	52%	10%	0.1 µM	3%	N=C(N)NCCC[C@H](NC(=O)[C@H](CCCCN)NC(=O)[C@@H]1CCCN1C(=O)Cc1cccc2ccccc12)C(N)=O	Selectivity ratio [2]: > 1000; inhibition [3]: < 50%; IC50 [5]: 1000 µM; inhibition [6]: < 50%; Selectivity ratio [7]: > 1000; inhibition [8]: < 50%; inhibition [10]: < 50%; inhibition [12]: < 50%; inhibition [13]: Active; Selectivity ratio [14]: > 1000; inhibition [16]: < 50%; Selectivity ratio [17]: > 1000; Selectivity ratio [18]: > 1000; Selectivity ratio [19]: > 1000
Stable	100%	48%	0.47 µM	0%	CN(C(=O)[C@H](CCCCN)NC(=O)[C@@H]1CCCN1C(=O)Cc1cccc2ccccc12)[C@@H](CCCCN)C(N)=O	–
